From patent US20230017045A1, “PYRIDINE AND PYRIMIDINE CARBOXYLATE HERBICIDES AND METHODS OF USE THEREOF” (Dow AgroSciences LLC, priority 2017, published 2023)
Like-named read-outs stand apart in the source and are kept apart here.

Test system: test plant species
Test: Post-emergent herbicidal activity test (greenhouse, foliar spray, visual growth reduction)
Type: in vivo
Settings: post-emergence, 336 h, 140 g ai/ha
How it was run: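 Visual scoring 14 d after treatment (0 = no injury, 100 = complete control) against nontreated and solvent-blank plants gave percent growth reduction. Foliar application used a track sprayer delivering 187 L/ha to seedlings at first or second true leaf stage, grown at 23–29 °C day, ~15 h photoperiod.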

[1] = ALOMY: blackgrass (Alopecurus myosuroides), 14 days after application, read-out: Visual Growth Reduction (%) 14 Days After Application, ALOMY
[2] = AMARE: redroot pigweed (Amaranthus retroflexus), 14 days after application, read-out: Visual Growth Reduction (%) 14 Days After Application, AMARE
[3] = AVEFA: wild oat (Avena fatua), 14 days after application, read-out: Visual Growth Reduction (%) 14 Days After Application, AVEFA
[4] = CHEAL: lambsquarters (Chenopodium album), 14 days after application, read-out: Visual Growth Reduction (%) 14 Days After Application, CHEAL
[5] = CIRAR: canada thistle (Cirsium arvense), 14 days after application, read-out: Visual Growth Reduction (%) 14 Days After Application, CIRAR
[6] = CYPES: yellow nutsedge (Cyperus esculentus), 14 days after application, read-out: Visual Growth Reduction (%) 14 Days After Application, CYPES
[7] = DIGSA: crabgrass (Digitaria sanguinalis), 14 days after application, read-out: Visual Growth Reduction (%) 14 Days After Application, DIGSA
[8] = ECHCG: barnyardgrass (Echinochloa crus-galli), 14 days after application, read-out: Visual Growth Reduction (%) 14 Days After Application, ECHCG
[9] = IPOHE: ivy-leaf morning glory (Ipomoea hederacea), 14 days after application, read-out: Visual Growth Reduction (%) 14 Days After Application, IPOHE
[10] = KCHSC: kochia (Bassia scoparia), 14 days after application, read-out: Visual Growth Reduction (%) 14 Days After Application, KCHSC
[11] = ORYSA: rice (Oryza sativa), 14 days after application, read-out: Visual Growth Reduction (%) 14 Days After Application, ORYSA
[12] = SETFA: giant foxtail (Setaria faberi), 14 days after application, read-out: Visual Growth Reduction (%) 14 Days After Application, SETFA
[13] = SORVU: grain sorghum (Sorghum vulgare), 14 days after application, read-out: Visual Growth Reduction (%) 14 Days After Application, SORVU
[14] = STEME: common chickweed (Stellaria media), 14 days after application, read-out: Visual Growth Reduction (%) 14 Days After Application, STEME
[15] = TRZAS: wheat, spring (Triticum aestivum), 14 days after application, read-out: Visual Growth Reduction (%) 14 Days After Application, TRZAS
[16] = blackgrass (Alopecurus myosuroides), 14 Days After Application, read-out: Visual Growth Reduction (%) ALOMY
[17] = crabgrass (Digitaria sanguinalis), 14 Days After Application, read-out: Visual Growth Reduction (%) DIGSA
[18] = lambsquarters (Chenopodium album), 14 Days After Application, read-out: Visual Growth Reduction (%) CHEAL
[19] = redroot pigweed (Amaranthus retroflexus), 14 Days After Application, read-out: Visual Growth Reduction (%) AMARE
[20] = wild oat (Avena fatua), 14 Days After Application, read-out: Visual Growth Reduction (%) AVEFA
[21] = yellow nutsedge (Cyperus esculentus), 14 Days After Application, read-out: Visual Growth Reduction (%) CYPES

SMILES	pest or weed control at 140 g/ha [1] [%]	pest or weed control at 140 g/ha [2] [%]	pest or weed control at 140 g/ha [3] [%]	pest or weed control at 140 g/ha [4] [%]	pest or weed control at 140 g/ha [5] [%]	pest or weed control at 140 g/ha [6] [%]	pest or weed control at 140 g/ha [7] [%]	pest or weed control at 140 g/ha [8] [%]	pest or weed control at 140 g/ha [9] [%]	pest or weed control at 140 g/ha [10] [%]	pest or weed control at 140 g/ha [11] [%]	pest or weed control at 140 g/ha [12] [%]	pest or weed control at 140 g/ha [13] [%]	pest or weed control at 140 g/ha [14] [%]	pest or weed control at 140 g/ha [15] [%]	pest or weed control at 140 g/ha [16] [%]	pest or weed control at 140 g/ha [17] [%]	pest or weed control at 140 g/ha [18] [%]	pest or weed control at 140 g/ha [19] [%]	pest or weed control at 140 g/ha [20] [%]	also measured
COC(=O)c1nc(-c2ccc(C(F)(F)F)c(/C=N/N(C)C)c2Cl)ccc1Cl [F142, Methyl (E)-3-chloro-6-(2-chloro-3-((2,2-dimethylhydrazono)methyl)-4-(trifluoromethyl)phenyl)picolinate]	0 to 29	60 to 74	0 to 29	30 to 44	0 to 29	0 to 29	0 to 29	0 to 29	60 to 74	0 to 29	0 to 29	0 to 29	60 to 74	0 to 29	0 to 29	–	–	–	–	–	–
COC(=O)c1nc(-c2ccc(OC(F)F)cc2)c(F)cc1Cl [F165, Methyl 3-chloro-6-(4-(difluoromethoxy)phenyl)-5-fluoropicolinate]	0 to 29	85 to 94	0 to 29	45 to 59	60 to 74	0 to 29	75 to 84	60 to 74	75 to 84	30 to 44	0 to 29	75 to 84	85 to 94	0 to 29	0 to 29	–	–	–	–	–	–
COC(=O)c1nc(-c2cc3c(cc2F)OC(F)(F)O3)c(F)cc1OC [F336, Methyl 5-fluoro-3-methoxy-6-(2,2,6-trifluorobenzo[d][1,3]dioxol-5-yl)picolinate]	–	–	–	–	–	–	–	0 to 29	0 to 29	0 to 29	0 to 29	0 to 29	75 to 84	0 to 29	30 to 44	0 to 29	60 to 74	30 to 44	30 to 44	0 to 29	pest or weed control at 140 g/ha [21]: 0 to 29%
COC(=O)c1nc(-c2ccc(F)c(OC)c2)ccc1Cl [F292, Methyl 3-chloro-6-(4-fluoro-3-methoxyphenyl) picolinate]	–	–	–	–	–	–	–	0 to 29	30 to 44	45 to 59	0 to 29	0 to 29	0 to 29	0 to 29	0 to 29	0 to 29	0 to 29	85 to 94	0 to 29	0 to 29	pest or weed control at 140 g/ha (canada thistle (Cirsium arvense), 14 Days After Application, read-out: Visual Growth Reduction (%) CIRAR): 60 to 74%; pest or weed control at 140 g/ha [21]: 60 to 74%
O=C(O)c1nc(-c2ccc(SC(F)(F)F)cc2Cl)c(F)cc1Cl [F131, 3-Chloro-6-(2-chloro-4-((trifluoromethyl)thio)phenyl)-5-fluoropicolinic acid]	45 to 59	95 to 100	75 to 84	95 to 100	95 to 100	0 to 29	95 to 100	60 to 74	95 to 100	95 to 100	30 to 44	85 to 94	85 to 94	0 to 29	60 to 74	–	–	–	–	–	–
